The record followed here is patent US20050208058A1, “Compositions and methods for modulating cell division” (priority 2003, published 2005).

Holding throughout (assay type): cell-based, human
The test system of data set [1] is RPE cells. The data set is described as follows: Flow cytometry (FACS) of nocodazole-induced shift from G1 to G2/M peak after siRNA treatment. As to the method: (§1) For flow cytometry (i.e., fluorescence-activated cell sorter or FACS) experiments, siRNAs were delivered to cells as described above, and were incubated for 50-70 hours. To synchronize cells, nocodazole was added to the cells to a concentration of 5 μg/mL for 12 hours. Cells were stained with propidium iodide and analyzed by flow cytometry (FACSCAN; Becton Dickinson) using FLOJO® software (Tree Star, Inc., Ashland, Oreg.).
In another approach to evaluating the effect requirement for centrosomal gene products, fluorescence assisted cell sorting (flow cytometry or FACS) analysis was performed as described in Gromley et al., J. Cell Biol., 161:535-545 (2003). Briefly, cells were treated with indicated siRNA for at least 50-70 hours, unless otherwise indicated. Cells were synchronized by adding nocodazole to 5 μg/mL for 12 hours prior to cell collection. Cells were collected, fixed in methanol, stained with propidium iodide, and analyzed by flow cytometry (FACSCAN®;Becton Dickinson) using FLOJO® software (Tree Star, Inc.).
FIG. 3A is a graph showing the effects of depleting the indicated centrosomal gene products by siRNA treatment. The left side of the graph depicts the FACS results for treated cells before the addition of nocodazole (-noc). The major fluorescence peak in (-noc) cells is the G1 peak, (i.e., lower DNA fluorescence). The right side of the graph depicts the results for cells after nocodazole treatment (+noc). […] This may be due to inefficient silencing caused by the siRNAs used.
The ability of a number of centrosomal genes to inhibit cell cycling of RPE1 cells was tested by treating cells with siRNAs and performing FACS analysis as described in Example 2.

In data set [2] the test system is RPE cells. Briefly: FACS of cells treated in tandem with two siRNAs (p53 dependence). Particulars: tandem treatment silamin then siGCP2; FIG. 6A. How it is done: as §1
(§2) A number of experiments were conducted to determine if p53 is required for the cell cycle arrest phenotype described herein. FACS analysis of tandem siRNA-treated cells was performed as described in Example 2. BrDU and DAPI imaging was performed as described in Example 2. Intracellular p53 was visualized using anti-p53 antibody that is specific for activated p53 (i.e., p53 phosphorylated at Serine 33) (“α-Pser33-p53” provided by Yoichi Taya and described in Kishis et al., J. Biol. Chem., 276:39115-3922, 2001)
In FIG. 6A each line tracing represents FACS data from cells treated in tandem with the siRNAs directed to the gene products indicated above the line. Cells were first treated with siRNA directed to the gene product to the left of the slash. Up to 24 hours later, siRNA directed to the gene product to the right of the slash was added. […] 12 hours before collecting the cells, nocodazole was added to the cells analyzed in the bottom three line tracings. […]

Data set [3] deals with RPE cells. Briefly: BrDU staining of cells treated in tandem with two siRNAs (p53 dependence). Particulars: tandem treatment silaminin then indicated siRNA, vs silamin/silamin; FIG. 6B. As to the method: To further study the effects of silencing centrosomal genes, the following cell cycle experiments were performed using RPE cells. In immunofluorescence experiments, cells were delivered by OLIGOFECTAMINE in a media solution containing between 1-100 nanomolar concentration of siRNAs. After 4 hours of incubation with lipofectamine, cells were washed, and cell cycle progression was assayed by (i) treating cells with 5-Bromo-2′-deoxyuridine (BrDU from Sigma, St Louis, Mo.) for 24 hours and staining for BrDU or (ii) staining cells with antibody to Ki-67 (BD Biosciences) according to manufacturer's instructions. BrDU treatment and staining were performed as follows: after 50-70 hours incubation with siRNA, BrDU was added to cells at a final concentration of 5 μg/ml. Cells were fixed in −20° C. methanol and then treated with 2N HCL at 22° C. for 30 minutes, incubated with 1:500 mouse anti-BrdU antibody (Becton Dickinson, Palo Alto, Calif.), and labeled with 1:1,000 goat FITC-mouse antibody (Molecular Probes, Inc.). Cells were also treated with 4′,6-diamidino-2-phenylindole (DAPI) (Molecular Probes) according to the manufacturer's instructions. Cells were prepared, imaged, and the resulting images were deconvolved as described in Example 1.
as §2

Data set [4] concerns p53. The data set is described as follows: Immunofluorescence of p53 and phosphorylated p53 (α-Pser33-p53) localization. Particulars: vs silamin. As to the method: as §2
Translocation of p53 into the nucleus caused by depletion of centrosomal proteins was also observed by immunofluorescence. […] Relatively little p53 translocated from the cytoplasm to the nucleus of silamin.
An antibody specifically reactive for phosphorylated p53 (α-Pser33-p53) was used to determine the phosphorylated state of p53 that accumulates in the nucleus as a result of GCP2 gene product depletion. In FIG. 6F, the left panels depict cells treated with silamin; the right panels depict cells treated with siGCP2. […] The two upper panels show a merged view of (i) the bottom panels and (ii) the same cells stained with DAPI. […] This nuclear localization is confirmed by the overlapping DAPI staining.

d = 2'-deoxy (DNA)

As for “UCUCGUACUCCAGAAGACU (siRNA; RNA, 3' dTdT, backbone not given here) [siGCP2, siRNA directed to GCP2]”, in data set [1] (72 hours of siRNA treatment, FIG. 3B), the “block of nocodazole-induced shift to G2/M peak at 72 hours” value is listed as “effectively blocked the nocodazole-induced shift”. In data set [1] (siRNA 50-70 hours, nocodazole 5 μg/mL 12 hours, FIG. 3A, FIG. 8), the “inhibition of nocodazole-induced shift from G1 peak to G2/M peak” value is listed as “prevented nocodazole-induced shift”. Also, in data set [1] (time course, FIG. 3B), the “duration of block of nocodazole shift” value is “at least 244 hours” and the “time of siRNA treatment before prevention of the nocodazole shift occurs” value was above 48 h. Moreover, in data set [2], the “nocodazole shift from G1 peak to G2/M peak” value is recorded as “blocked”. For the same sequence, the “cells incorporating BrDU” value in data set [3] is on record as “substantially fewer”. Besides, the “p53 accumulation in nucleus (immunofluorescence)” value in data set [4] (FIG. 6E) is recorded as “substantially more p53 accumulated in nucleus”. In addition, the “localization of activated p53 (α-Pser33-p53 staining)” value in data set [4] (FIG. 6F) was “activated p53 was detected only in the nucleus”.
